According to PubChem BioAssay AID1259407 (Chemical Carcinogenesis Research Information System (CCRIS), 2018):
Activity calls are given as the source filed them. How the calls were made is not given here.

System: CCRIS mutagenicity, Ames/micronucleus/aberration tests
Assay: CCRIS mutagenicity studies
Details: Test System: AMES SALMONELLA TYPHIMURIUM
[1] = Strain/Indicator: TA100, Metabolic Activation: NONE, Method: PREINCUBATION
[2] = Strain/Indicator: TA100, Metabolic Activation: NONE, Method: STANDARD PLATE
[3] = Strain/Indicator: TA1535, Metabolic Activation: NONE, Method: STANDARD PLATE

Row | SMILES | mutagenic call (Strain/Indicator: TA98, Metabolic Activation: NONE, Method: PREINCUBATION) | mutagenic call (Strain/Indicator: TA98, Metabolic Activation: RAT, LIVER, S-9, Method: PREINCUBATION) | mutagenic call [1] | mutagenic call [2] | mutagenic call (Strain/Indicator: TA100, Metabolic Activation: RAT, LIVER, S-9, AROCLOR 1254 (10% OR 20%), Method: STANDARD PLATE) | mutagenic call (Strain/Indicator: TA100, Metabolic Activation: RAT, LIVER, S-9, Method: PREINCUBATION) | mutagenic call [3] | mutagenic call (Strain/Indicator: TA1535, Metabolic Activation: NONE, Method: PREINCUBATION)
1 | Oc1cccc2ncccc12 | inactive; negative | active; positive | inactive; negative | inactive; negative | active; positive | active; positive |  | 
2 | O=C(O)c1cccnc1Nc1cccc(C(F)(F)F)c1 |  |  |  |  |  |  | inactive; negative | 
3 | COc1ccc(CC2CO2)cc1OC (stereo unspecified) |  |  | active; positive | active; positive |  |  | active; positive | active; positive
